Values joined by “and” are separate entries in the source; they are usually repeats but may differ in a detail not shown here. Identical values can stand only once.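 A five-concentration, 48-hour dose response in 96-well plates underlies each endpoint, interpolated linearly between surrounding concentrations. Here, GI50 denotes the concentration required for 50% inhibition of growth. TGI marks complete inhibition of growth.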
Legend:
Assay in all cases: DTP human tumour cell line panel, 48 h
[1] = tested on: UO-31 renal
[2] = tested on: A549 NSCLC
[3] = tested on: RXF 393 renal
[4] = tested on: PC-3 prostate
[5] = tested on: CCRF-CEM leukemia
[6] = tested on: HS 578T breast
[7] = tested on: MCF7 breast
[8] = tested on: OVCAR-4 ovarian
[9] = tested on: NCI/ADR-RES ovarian
[10] = tested on: NCI-H23 lung

With `N#Cc1nc(Cc2cccs2)oc1N` the TGI [1] was over 100 µM, the TGI [2] was over 100 µM and the TGI [3] was over 100 µM. The TGI [4] was over 100 µM, the TGI [5] was over 100 µM and the TGI [6] was over 100 µM. It also gave a TGI [7] of over 100 µM.

`CC(=O)Nc1oc(C)nc1C#N` gave a TGI [2] of over 100 µM, a TGI [3] of over 100 µM and a TGI [4] of over 100 µM. For the same molecule, the TGI [5] was over 100 µM, the TGI [8] was over 100 µM and the TGI [6] was over 100 µM. It also gave a TGI [7] of over 100 µM.

For `O=C(O)C1(Cc2ccc3c(c2)CCC3)Cc2cc3c(cc2C1)CCC3`, the TGI [1] was over 100 µM, the TGI [2] was over 100 µM and the TGI [4] was over 100 µM. The TGI [5] was over 100 µM, the TGI [8] was over 100 µM and the TGI [6] was over 100 µM. For the same molecule, the TGI [7] was over 100 µM.

`COc1ccc(/C=C(\C#N)c2nc(-c3cc4ccccc4oc3=O)cs2)cc1` showed a TGI [1] of 57.4 µM, a TGI [2] of over 100 µM and a TGI [3] of 45.4 µM. For the same molecule, the TGI [4] was over 100 µM, the TGI [5] was over 100 µM and the TGI [8] was 58.8 µM. It also gave a TGI [6] of over 100 µM, a TGI [9] of over 100 µM and a TGI [7] of over 100 µM.

`CC(=O)Oc1ccc(-c2c(OC(C)=O)c(OC(C)=O)c(-c3ccc(OC(C)=O)c(OC(C)=O)c3)c(OC(C)=O)c2OC(C)=O)cc1` gave a TGI [1] of 28.8 µM, a TGI [2] of 37.8 µM and a TGI [3] of 36.1 µM. It also gave a TGI [4] of 31 µM, a TGI [10] of 38 µM and a TGI [5] of 37.4 µM. It also gave a TGI [8] of 31.8 µM, a TGI [9] of over 100 µM and a TGI [7] of 50.6 µM.

Work on `COC(=O)C[C@H]1[C@]2(C)C3=C(C)[C@H](c4ccoc4)CC3O[C@@H]2[C@@H]2OC(=O)[C@]3(C)CCC(=O)[C@@]1(C)[C@@H]23` (stereo not given in full) yielded a TGI [1] of over 100 µM, a TGI [2] of over 100 µM and a TGI [3] of over 100 µM. The TGI [10] was over 100 µM, the TGI [5] was 45.1 µM and the TGI [8] was over 100 µM. The TGI [6] was over 100 µM, the TGI [9] was over 100 µM and the TGI [7] was over 100 µM.

`COc1ccc(/C(Cl)=C(\C=O)c2ccc(Cl)cc2)cc1` gave a TGI [1] of 33.1 µM, a TGI [2] of over 100 µM and a TGI [3] of 57.3 µM. The TGI [10] was 17.1 µM, the TGI [5] was 11.4 µM and the TGI [8] was over 100 µM.

Work on `O=C1C(=O)C(CCCO)(CCCO)CCCCCCCCC1(CCCO)CCCO` yielded a TGI [1] of 60.4 µM, a TGI [2] of over 100 µM and a TGI [3] of 68.8 µM. It also gave a TGI [4] of over 100 µM, a TGI [10] of over 100 µM and a TGI [8] of over 100 µM. For the same molecule, the TGI [6] was over 100 µM, the TGI [9] was over 100 µM and the TGI [7] was over 100 µM.

For `CC(=O)N/N=C1\NN(C(C)=O)C2(S1)C(=O)Nc1ccccc12` (stereo not given), the TGI [1] was over 100 µM, the TGI [4] was over 100 µM and the TGI [10] was over 100 µM. It also gave a TGI [5] of over 100 µM, a TGI [8] of over 100 µM and a TGI [9] of over 100 µM. The TGI [7] was over 100 µM.

Work on `CC1(C)CN=C(c2ccc3ccccc3c2O)N1` yielded a TGI [1] of over 100 µM, a TGI [2] of over 100 µM and a TGI [4] of over 100 µM. It also gave a TGI [10] of over 100 µM, a TGI [5] of over 100 µM and a TGI [8] of over 100 µM. It also gave a TGI [6] of over 100 µM, a TGI [9] of over 100 µM and a TGI [7] of over 100 µM.

Work on `COc1ccc(C2=C(N)c3ccccc3C2=O)cc1` yielded a TGI [2] of over 100 µM, a TGI [4] of over 100 µM and a TGI [10] of over 100 µM. For the same molecule, the TGI [5] was over 100 µM, the TGI [8] was over 100 µM and the TGI [6] was 63.9 µM. It also gave a TGI [9] of over 100 µM and a TGI [7] of over 100 µM.

Molecule `C#Cc1ccccc1C(=O)OC` has a TGI [1] of over 100 µM, a TGI [2] of over 100 µM and a TGI [3] of over 100 µM. The TGI [10] was over 100 µM, the TGI [5] was over 100 µM and the TGI [8] was over 100 µM.

`COc1cccc2c1C(=O)c1c(O)c3c(c(O)c1C2=O)C[C@](O)(C(=O)CO)CC3OC1CC(N)C(OC2CCCCO2)C(C)O1` (stereo not given in full) was tested, and the TGI [1] was 3.63 µM, the TGI [2] was 13.3 µM and the TGI [3] was 1.87 µM. It also gave a TGI [10] of 1.97 µM, a TGI [8] of 4.2 µM and a TGI [9] of 41.8 µM. The TGI [7] was 12.1 µM.

With `Nc1ncnc2c(C3OC(CO)C(O)C3O)c[nH]c12` (stereo not given) the TGI [1] was 0.118 µM and 0.258 µM, the TGI [2] was 0.0775 µM and 0.434 µM and the TGI [3] was 0.126 µM and 0.0746 µM. For the same molecule, the TGI [4] was 0.128 µM and 0.324 µM, the GI50 [10] was under 0.0104 µM and the TGI [10] was 0.0792 µM and 0.0756 µM. For the same molecule, the TGI [5] was 0.0988 µM and < 0.0135 µM, the TGI [8] was 0.705 µM and 0.741 µM and the GI50 [6] was 0.0247 µM. The TGI [7] was 0.0807 µM.

With `Cc1cccc(/C=N/NC(=S)NC(C)(C)C)n1` the TGI [1] was over 100 µM, the TGI [2] was over 100 µM and the TGI [4] was over 100 µM. For the same molecule, the TGI [10] was over 100 µM, the TGI [5] was over 100 µM and the TGI [8] was over 100 µM. It also gave a TGI [6] of over 100 µM, a TGI [9] of over 100 µM and a TGI [7] of over 100 µM.

Molecule `CN(C)CCCN1C(=O)N(CCCN(C)C)c2c3cc(O)ccc3nc3c([N+](=O)[O-])ccc1c23` has a TGI [1] of 63.6 µM, a TGI [2] of 39.6 µM and a TGI [3] of 25.1 µM. It also gave a TGI [4] of 24 µM, a TGI [10] of 48 µM and a TGI [8] of 17.8 µM. The TGI [6] was 60 µM, the TGI [9] was over 100 µM and the TGI [7] was 40.4 µM.

Work on `CN(NC(=O)/C(=C/C=C/c1ccccc1)NC(=O)c1ccccc1)C1=C(Cl)C(=O)[N+](c2ccccc2)=CC1` yielded a TGI [1] of over 100 µM, a TGI [2] of 93.8 µM and a TGI [3] of 53.8 µM. It also gave a TGI [4] of over 100 µM, a TGI [10] of over 100 µM and a TGI [8] of 64 µM. For the same molecule, the TGI [6] was over 100 µM, the TGI [9] was 53.8 µM and the TGI [7] was 36.3 µM.

`Cc1cccc(-c2cc(=O)c3c(C)ccnc3[nH]2)c1` was tested, and the TGI [2] was over 100 µM, the TGI [3] was over 100 µM and the TGI [4] was over 100 µM. For the same molecule, the TGI [10] was over 100 µM, the TGI [5] was over 100 µM and the TGI [8] was over 100 µM. It also gave a TGI [6] of over 100 µM and a TGI [7] of over 42.2 µM.

Work on `Cn1c(=O)n2n(c1=O)C1C(=CC2)C2C=CC1n1c(=O)n(C)c(=O)n12` (stereo not given) yielded a TGI [1] of over 100 µM, a TGI [2] of over 100 µM and a TGI [3] of over 100 µM. It also gave a TGI [4] of over 100 µM, a TGI [10] of over 100 µM and a TGI [5] of over 100 µM. It also gave a TGI [6] of over 100 µM and a TGI [9] of over 100 µM.

With `C=C1C(=O)OC2C1CC1OC2C(C)CCC/C(C)=C\CCC1(C)O` (stereo not given) the TGI [1] was 79.6 µM, the TGI [2] was over 78.3 µM and the TGI [3] was 17.9 µM. It also gave a TGI [10] of 29 µM, a TGI [5] of 22.2 µM and a TGI [8] of 56.6 µM. It also gave a TGI [9] of 55.2 µM and a TGI [7] of 57.4 µM.

Molecule `CCOC(=O)Cn1c(C)nc2nn(Cc3ccccc3)cc2c1=O` has a TGI [1] of over 100 µM, a TGI [2] of over 100 µM and a TGI [3] of over 100 µM. It also gave a TGI [4] of over 100 µM, a TGI [10] of over 100 µM and a TGI [5] of over 100 µM. For the same molecule, the TGI [6] was over 100 µM, the TGI [9] was over 100 µM and the TGI [7] was over 100 µM.

With `COc1ccc(N2C(=O)CSC2c2cc(OC)c(OC)c(OC)c2)cc1` (stereo not given) the TGI [1] was 27.1 µM, the TGI [2] was 83.4 µM and the TGI [4] was over 100 µM. The TGI [10] was over 100 µM, the TGI [5] was 35.1 µM and the TGI [8] was over 100 µM. For the same molecule, the TGI [6] was over 100 µM, the TGI [9] was 85.6 µM and the TGI [7] was over 100 µM.

`COC(=O)C1CC(C=O)=C(SC)N1` (stereo not given) gave a TGI [1] of over 50 µM, a TGI [2] of over 50 µM and a TGI [3] of over 50 µM. The TGI [4] was over 50 µM, the TGI [10] was over 50 µM and the TGI [8] was over 50 µM. It also gave a TGI [6] of over 50 µM, a TGI [9] of over 50 µM and a TGI [7] of over 50 µM.

Work on `CCC[CH2][Ge]([CH2]CCC)([CH2]CCC)[O]C(=O)CCl` yielded a GI50 [1] of 2.28 µM, a TGI [1] of 15.6 µM and a GI50 [2] of 1.01 µM. The TGI [2] was 17.3 µM, the GI50 [3] was 0.612 µM and the TGI [3] was 3.56 µM. For the same molecule, the GI50 [10] was 0.115 µM, the TGI [10] was 12.5 µM and the GI50 [5] was 0.406 µM. The TGI [5] was 17.9 µM, the GI50 [8] was 2.76 µM and the TGI [8] was 21.5 µM.

From PubChem BioAssay (NCI)
